The test system of experiment [1] is H1975 (non-small cell lung adenocarcinoma). Nature of the experiment: MTT cancer cell growth inhibition. Particulars: MTT, 72 hours incubation, H1975 cells, read-out: GI50 H1975. In kind it is cell-based. In a few lines:
(§1)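 72 h exposure, final drug 10^−5–10^−10 M, triplicate wells; 1500 cells/well plated the day before; medium DMEM or 1640 + 10% FBS; 37° C./5% CO2. MTT (5 mg/ml stock) 4 h, DMSO solubilisation, A570 → % viability → GI50.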

The test system of experiment [2] is lncap (prostate cancer cells). Nature of the experiment: MTT cancer cell growth inhibition. Particulars: MTT, 72 hours incubation, read-out: GI50 lnca. In kind it is cell-based. The method, boiled down:
as §1

The test system of experiment [3] is K562 (human leukemia cells). As to the kind of experiment: MTT cancer cell growth inhibition. In kind it is cell-based. Particulars: MTT, 72 hours incubation, K562 cells, read-out: GI50 K562. The method, boiled down: as §1
The subject of experiment [4] is Huh-7 (human hepatoma cells). As to the kind of experiment: MTT cancer cell growth inhibition. To be noted: MTT, 72 hours incubation, Huh-7 cells, read-out: GI50 Huh-7. In kind it is cell-based. The method, boiled down:
as §1

Experiment [5] concerns Hela (human cervical cancer cells). As to the kind of experiment: MTT cancer cell growth inhibition. Particulars: MTT, 72 hours incubation, read-out: GI50 Hela. In kind it is cell-based. The method, boiled down: as §1
Experiment [6] has as its system MDA-MB-231 (breast cancer cells). As to the kind of experiment: MTT cancer cell growth inhibition. In kind it is cell-based. In a few lines:
as §1

Experiment [7] deals with U937 (human leukemia cells). Nature of the experiment: MTT cancer cell growth inhibition. In kind it is cell-based. Particulars: MTT, 72 hours incubation, read-out: GI50 U93. The method, boiled down:
as §1

Experiment [8] deals with Bel-7402 (human hepatoma cells). Nature of the experiment: MTT cancer cell growth inhibition. In kind it is cell-based. To be noted: MTT, 72 hours incubation, Bel-7402 cells, read-out: GI50 Bel-7402. In a few lines: as §1
Experiment [9] relates to A549 (human lung cancer cells). As to the kind of experiment: MTT cancer cell growth inhibition. In kind it is cell-based. Particulars: MTT, 72 hours incubation, read-out: GI50 A54. The method, boiled down: as §1
For experiment [10], the system named is MOLT-4 (human acute lymphoblastic leukemia cells). Nature of the experiment: MTT cancer cell growth inhibition. To be noted: MTT, 72 hours incubation, read-out: GI50 Mol. In kind it is cell-based. The method, boiled down: as §1
Experiment [11] has as its system KBM5-T315I (human chronic myelogenous leukemia). Nature of the experiment: MTT cancer cell growth inhibition. In kind it is cell-based. Particulars: MTT, 72 hours incubation, KBM5-T315I cells, read-out: GI50 KBM5-T315I. In a few lines:
as §1

Experiment [12] relates to N-87 (human gastric cancer cells). As to the kind of experiment: MTT cancer cell growth inhibition. To be noted: MTT, 72 hours incubation, N-87 cells, read-out: GI50 N-87. In kind it is cell-based. In a few lines: as §1
Experiment [13] has as its system BGC-823 (human gastric cancer cells). Nature of the experiment: MTT cancer cell growth inhibition. In kind it is cell-based. Particulars: MTT, 72 hours incubation, read-out: GI50 BG. The method, boiled down: as §1
Experiment [14] concerns MCF-7 (human breast cancer cells). Nature of the experiment: MTT cancer cell growth inhibition. In kind it is cell-based. To be noted: 72 hours incubation, read-out: GI50 MCF. The method, boiled down: as §1
The subject of experiment [15] is SGC-7901 (human gastric cancer cells). Nature of the experiment: MTT cancer cell growth inhibition. In kind it is cell-based. Particulars: MTT, 72 hours incubation, SGC-7901 cells, read-out: GI50 SGC-7901. In a few lines: as §1
Experiment [16] relates to DU145 (human prostate cancer cells). Nature of the experiment: MTT cancer cell growth inhibition. To be noted: MTT, 72 hours incubation, read-out: GI50 Du1. In kind it is cell-based. In a few lines: as §1
The test system of experiment [17] is KBM-5 (human chronic myelogenous leukemia). Nature of the experiment: MTT cancer cell growth inhibition. In kind it is cell-based. To be noted: MTT, 72 hours incubation, KBM-5 cells, read-out: GI50 KBM-5. The method, boiled down:
as §1

Experiment [18] deals with HCC827 (human non-small cell lung cancer cells). Nature of the experiment: MTT cancer cell growth inhibition. In kind it is cell-based. To be noted: MTT, 72 hours incubation, HCC827 cells, read-out: GI50 HCC827. In a few lines: as §1
In experiment [19] the test system is HT1080 (human fibrosarcoma cells). Nature of the experiment: MTT cancer cell growth inhibition. In kind it is cell-based. To be noted: MTT, 72 hours incubation, read-out: GI50 HT1. In a few lines:
as §1

Experiment [20] concerns PANC-1 (Pac-1, human pancreatic cancer cells). Nature of the experiment: MTT cancer cell growth inhibition. In kind it is cell-based. Particulars: MTT, 72 hours incubation, read-out: GI50 PAN. The method, boiled down: as §1
Another experiment concerns the target T1, HDAC7 (Homo sapiens, UniProt Q8WUI4).
T1 sequence (Q8WUI4 1-952): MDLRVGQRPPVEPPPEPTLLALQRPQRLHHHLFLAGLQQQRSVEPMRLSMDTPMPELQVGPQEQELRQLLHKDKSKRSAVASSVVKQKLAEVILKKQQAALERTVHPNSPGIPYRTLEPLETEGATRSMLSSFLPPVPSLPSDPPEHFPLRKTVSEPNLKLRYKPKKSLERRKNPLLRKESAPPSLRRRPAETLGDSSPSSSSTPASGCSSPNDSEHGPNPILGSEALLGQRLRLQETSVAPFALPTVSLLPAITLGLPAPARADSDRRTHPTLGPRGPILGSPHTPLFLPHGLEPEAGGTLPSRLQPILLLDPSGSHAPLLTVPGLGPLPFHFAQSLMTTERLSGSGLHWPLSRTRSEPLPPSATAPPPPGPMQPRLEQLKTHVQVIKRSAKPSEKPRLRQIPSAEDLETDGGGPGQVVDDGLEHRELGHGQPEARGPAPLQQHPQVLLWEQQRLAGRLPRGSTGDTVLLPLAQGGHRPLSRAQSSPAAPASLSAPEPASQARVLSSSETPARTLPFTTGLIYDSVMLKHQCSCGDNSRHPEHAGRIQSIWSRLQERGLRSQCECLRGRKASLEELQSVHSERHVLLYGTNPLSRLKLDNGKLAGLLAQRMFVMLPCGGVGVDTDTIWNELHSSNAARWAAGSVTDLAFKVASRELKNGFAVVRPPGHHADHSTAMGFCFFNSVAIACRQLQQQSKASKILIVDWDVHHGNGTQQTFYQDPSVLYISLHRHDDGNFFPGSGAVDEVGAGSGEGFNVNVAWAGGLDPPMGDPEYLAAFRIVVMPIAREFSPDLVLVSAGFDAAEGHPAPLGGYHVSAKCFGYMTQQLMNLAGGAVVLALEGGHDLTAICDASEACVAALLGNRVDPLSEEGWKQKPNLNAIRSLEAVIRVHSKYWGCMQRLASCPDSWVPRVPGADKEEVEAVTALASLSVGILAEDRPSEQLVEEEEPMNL
Nature of the experiment: HDAC biochemical activity measurement (fluorescent substrate deacetylation). Particulars: HDAC7; 37° C. 30 minutes.

For a further experiment, the target named is HDAC1 (Homo sapiens, UniProt Q13547). Described as above.
Setting [21] is: Homo sapiens, MDA-MB-231, 72 h, read-out: GI50 MDA-MB-231, MTT, 72 hours incubation, MDA-MB-231 cells.

Read-outs that look alike come from different tables or passages of the source.
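Wherever IC50 HDAC1 is given: fluorogenic acetyl-lysine substrate (20 µM) deacetylated by HDAC1, then developer releases fluorophore read at 360 nm excitation and 460 nm emission, inhibitor incubated 30 min at 37 °C.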
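Wherever IC50 HDAC1, C (six-membered ring with substituents) is given: fluorogenic acetyl-lysine substrate (20 µM) deacetylated by HDAC1, then developer releases fluorophore read at 360 nm excitation and 460 nm emission, inhibitor incubated 30 min at 37 °C.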
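Wherever IC50 HDAC7 is given: fluorogenic deacetylation assay using acetyl-lysine substrate at 20 µM, enzyme and compound incubated 30 min at 37 °C, then developer added, fluorescence read at 360/460 nm.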

HDAC1, sequence (Q13547 whole entry, species assumed): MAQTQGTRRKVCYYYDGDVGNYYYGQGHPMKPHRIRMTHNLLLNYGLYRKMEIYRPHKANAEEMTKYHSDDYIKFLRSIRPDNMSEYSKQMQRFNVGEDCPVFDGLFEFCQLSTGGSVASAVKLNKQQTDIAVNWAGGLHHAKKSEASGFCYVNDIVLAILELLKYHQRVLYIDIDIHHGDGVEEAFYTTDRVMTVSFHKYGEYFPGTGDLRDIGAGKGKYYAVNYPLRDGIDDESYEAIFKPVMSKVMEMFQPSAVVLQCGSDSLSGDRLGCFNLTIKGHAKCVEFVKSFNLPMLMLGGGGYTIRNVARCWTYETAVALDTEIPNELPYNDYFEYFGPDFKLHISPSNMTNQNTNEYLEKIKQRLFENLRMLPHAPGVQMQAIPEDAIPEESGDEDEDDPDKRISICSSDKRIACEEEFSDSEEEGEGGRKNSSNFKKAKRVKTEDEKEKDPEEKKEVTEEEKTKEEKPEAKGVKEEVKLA
Protocol for HDAC1: The chemical activity of the compound is determined according to the degree of deacetylation inhibition of the HDAC enzyme. This experiment measured the degree of deacetylation related to tumor proliferation and metastasis of HDAC1, HDAC2, HDAC3, HDAC8, HDAC11 five subtypes HDAC enzymes. After the substrate containing an acetylated lysine side chain and HDAC enzyme are labeled with a fluorescent label, the fluorescent substrate is de acetyl. The fluorescent labeled substrate is cleaved by the enzyme, and the fluorescent substance is released, which generates 460 nm emission light under the excitation of 360 nm light.
HDAC substrate was diluted with reaction buffer to 200M (reaction concentration of 20M), the HDAC enzyme was diluted to the appropriate concentration, then added different concentrations of the test compounds and acted at 37° C. 30 minutes, and then added the same volume of 2-times concentration substrate developing solution (developer), incubated at room temperature for 15 minutes.

Broadly, the GI50 is the concentration giving 50% growth inhibition. In general, IC50 refers to the concentration that inhibits the measured activity by half. For the compound `C/C=C1\NC(=O)c2ccc(SC)c(n2)CNC(=O)C[C@@H](/C=C/CCSC(C)=O)OC(=O)[C@H](C)NC1=O` [Compound 215], the GI50 was found to be 37 nM in [1]; 100 nM in experiment [2] (lncap cells); 48 nM in experiment [3]; 65 nM in [4]; 20 nM in [5] (Hela cells); 47 nM in experiment [6] (read-out: GI50 MDA-MB-231, MTT, 72 hours incubation, MDA-MB-231 cells). In addition, the GI50 in [7] (U937 cells) is 90 nM; in experiment [8] it was 19 nM; in [9] (A549 cells), 50 nM; in experiment [10] (MOLT-4 cells) it was 70 nM; in [11], 42 nM; in experiment [12], 17 nM. Also, the GI50 in experiment [13] (BGC-823 cells) is 40 nM; in [14] (MCF-7 cells), 30 nM; in [15] it was 48 nM; in experiment [16] (DU145 cells), 30 nM; in experiment [17], 25 nM; in experiment [18], 15 nM. Also, the GI50 worked out at 20 nM in experiment [19] (HT1080 cells) and 40 nM in experiment [20] (PANC-1 cells). Further, at HDAC7, the “IC50 HDAC7” value was “no activity”. Besides, the IC50 at HDAC1 (HDAC1, 37° C. 30 minutes, read-out: IC50 HDAC1) turned out to be 66 nM.

Regarding `C/C=C1\NC(=O)c2cc(F)cc(n2)CNC(=O)C[C@@H](/C=C/CCSC(C)=O)OC(=O)[C@H](C)NC1=O` [Compound 64], the GI50 in experiment [1] (Homo sapiens, NCI-H1975, 72 h) came to 38 nM; in [2] (Homo sapiens, LNCaP, 72 h), 40 nM; in experiment [3] (Homo sapiens, K562, 72 h) it was 26 nM; in experiment [4] (Homo sapiens, Huh-7, 72 h), 46 nM; in [5] (Homo sapiens, HeLa, 72 h), 80 nM; in experiment [6] (setting [21]) it was 46 nM. The GI50 came to 30 nM in [7] (Homo sapiens, U-937, 72 h); 51 nM in experiment [8] (Homo sapiens, Bel-7402, 72 h); 30 nM in experiment [9] (Homo sapiens, A549, 72 h); 40 nM in [10] (Homo sapiens, MOLT-4, 72 h); 22 nM in experiment [11] (Homo sapiens, 72 h); 30 nM in [12] (Homo sapiens, 72 h). The GI50 amounted to 30 nM in experiment [13] (Homo sapiens, BGC-823, 72 h); 20 nM in [14] (Homo sapiens, MCF7, 72 h); 35 nM in experiment [15] (Homo sapiens, SGC-7901, 72 h); 20 nM in experiment [16] (Homo sapiens, DU-145, 72 h); 82 nM in experiment [17] (Homo sapiens, KBM5, 72 h); 51 nM in [18] (Homo sapiens, HCC827, 72 h). Moreover, the GI50 came to 50 nM in experiment [19] (Homo sapiens, HT-1080, 72 h) and 50 nM in experiment [20] (Homo sapiens, PANC-1, 72 h). In addition, the IC50 at HDAC1 (Table 3, column C, read-out: IC50 HDAC1, C (six-membered ring with substituents)) worked out at 24 nM.

With `C/C=C1\NC(=O)c2nc(ccc2F)CNC(=O)C[C@@H](/C=C/CCS)OC(=O)[C@H](C(C)C)NC1=O` [Compound 106], the GI50 in experiment [1] (Homo sapiens, NCI-H1975, 72 h) came to 68 nM; in experiment [2] (Homo sapiens, LNCaP, 72 h), 30 nM; in [3] (Homo sapiens, K562, 72 h) it was 27 nM; in experiment [4] (Homo sapiens, Huh-7, 72 h) it was 31 nM; in experiment [5] (Homo sapiens, HeLa, 72 h), 50 nM; in experiment [6] (setting [21]) it was 19 nM. Further, the GI50 in [7] (Homo sapiens, U-937, 72 h) was found to be 20 nM; in experiment [8] (Homo sapiens, Bel-7402, 72 h), 66 nM; in experiment [9] (Homo sapiens, A549, 72 h) it was 60 nM; in experiment [10] (Homo sapiens, MOLT-4, 72 h), 30 nM; in experiment [11] (Homo sapiens, 72 h), 76 nM; in [12] (Homo sapiens, 72 h), 12 nM. Further, the GI50 in experiment [13] (Homo sapiens, BGC-823, 72 h) is 20 nM; in experiment [14] (Homo sapiens, MCF7, 72 h) it was 30 nM; in [15] (Homo sapiens, SGC-7901, 72 h), 35 nM; in experiment [16] (Homo sapiens, DU-145, 72 h), 30 nM; in experiment [17] (Homo sapiens, KBM5, 72 h), 56 nM; in [18] (Homo sapiens, HCC827, 72 h) it was 43 nM. Further, the GI50 amounted to 30 nM in experiment [19] (Homo sapiens, HT-1080, 72 h) and 30 nM in [20] (Homo sapiens, PANC-1, 72 h). Moreover, the “IC50 HDAC7” value against HDAC7 was “no activity”.

(Values after patent publication US10065990B2, “Cyclic peptide compound, and preparation method, pharmaceutical composition and use thereof” (HANGZHOU GUANYU BIO-MEDICAL CO., LTD, priority 2013, dated 2018).)
